# Experimental data: publication PMC2765782 (Journal of medicinal chemistry, 2009)
# Experiments:
# human RXRα [1] = molecular target: T1, human RXRα (Homo sapiens, UniProt P19793); conditions: 10^−7 M, 24 h, Caco-2 cells, versus ethanol control (Figure 4)
# T1 sequence (P19793 1-462): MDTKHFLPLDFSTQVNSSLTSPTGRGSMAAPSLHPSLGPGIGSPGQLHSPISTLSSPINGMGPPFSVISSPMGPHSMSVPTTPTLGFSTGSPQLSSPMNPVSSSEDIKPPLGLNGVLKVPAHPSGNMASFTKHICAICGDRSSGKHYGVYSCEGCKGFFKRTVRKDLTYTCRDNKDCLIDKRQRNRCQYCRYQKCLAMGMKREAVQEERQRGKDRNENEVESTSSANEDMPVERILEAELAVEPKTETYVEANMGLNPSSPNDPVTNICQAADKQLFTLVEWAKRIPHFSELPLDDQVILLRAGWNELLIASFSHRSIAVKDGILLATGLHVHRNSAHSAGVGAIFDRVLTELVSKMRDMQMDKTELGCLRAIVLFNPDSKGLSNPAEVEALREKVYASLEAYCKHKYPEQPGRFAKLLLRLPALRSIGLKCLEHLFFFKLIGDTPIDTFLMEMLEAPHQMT
# human RARα = molecular target: T2, human RARα (Homo sapiens, UniProt P10276); conditions: RARE-luciferase reporter, Caco-2 cells
# T2 sequence (P10276 1-462): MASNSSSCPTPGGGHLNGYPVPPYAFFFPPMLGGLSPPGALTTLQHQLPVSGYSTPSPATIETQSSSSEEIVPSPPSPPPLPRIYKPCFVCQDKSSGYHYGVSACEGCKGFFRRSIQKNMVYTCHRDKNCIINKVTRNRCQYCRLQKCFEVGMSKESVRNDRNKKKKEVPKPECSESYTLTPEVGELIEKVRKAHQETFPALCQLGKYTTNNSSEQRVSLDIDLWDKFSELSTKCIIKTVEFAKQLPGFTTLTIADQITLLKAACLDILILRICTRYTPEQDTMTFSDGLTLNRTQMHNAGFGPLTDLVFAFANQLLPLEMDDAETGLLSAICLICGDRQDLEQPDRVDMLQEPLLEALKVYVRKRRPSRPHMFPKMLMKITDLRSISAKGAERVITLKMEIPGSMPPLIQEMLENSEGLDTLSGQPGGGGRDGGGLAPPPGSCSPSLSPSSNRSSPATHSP
# T2 sequence (P19793 1-462 partner): T1 sequence (P19793 1-462)
# RXR [2] = molecular target: T3, RXR (Homo sapiens, UniProt P19793); assay: cell-based
# T3 sequence (P19793 227-462 limits assumed): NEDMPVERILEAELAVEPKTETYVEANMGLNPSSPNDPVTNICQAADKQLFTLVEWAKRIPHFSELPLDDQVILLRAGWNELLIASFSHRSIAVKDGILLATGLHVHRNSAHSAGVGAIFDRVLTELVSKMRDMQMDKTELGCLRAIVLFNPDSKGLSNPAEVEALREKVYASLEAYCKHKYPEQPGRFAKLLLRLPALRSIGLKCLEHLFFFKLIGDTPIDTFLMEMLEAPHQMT
# human RXRα [3] = molecular target: T1, human RXRα; assay: biochemical
# RXR [4] = molecular target: T3, RXR; conditions: for RXR binding and homodimerization relative to 1 (luciferase output): 10^−7 M, 24 h, Caco-2 cells, compound 1 set to 1.0 (Figure 3)
# [5] = tested on: Human T-cell lymphoma (CTCL) cells (Hut78); conditions: 24 h, versus ethanol vehicle control (Figure 5)
# human RXRα [6] = molecular target: T1, human RXRα; conditions: based on Ki values of Table 1
Molecule,RXR-mediated transcriptional activity (RXRE-luciferase) (human RXRα [1]),RAR agonist activity compared with 1 (human RARα),EC50 (RXR [2]) [µM],Ki (human RXRα [3]) [µM],RXR binding and homodimerization relative to 1 (luciferase output) (RXR [4]),apoptotic activity (caspases 3 and 7) [5],apparent RXR binding affinity greater than 1 (human RXRα [6]) [%],"increase in efficacy based on EC50 values (RXR [4]; versus 1, Table 1) [%]"
"5-(1-(1,2,3,4-Tetrahydro-1,1,4,4,6-pentamethylnaphthalen-7-yl)vinyl)benzene-1,3-dioic Acid [Compound 14]",did not display significant RXR binding and activation,–,–,–,–,–,–,–
"C=C(c1ccc(C(=O)O)c([N+](=O)[O-])c1)c1cc2c(cc1C)C(C)(C)CCC2(C)C [Compound 16, 4-(1-(1,2,3,4-Tetrahydro-1,1,4,4,6-pentamethylnaphthalen-7-yl)vinyl)-2-nitrobenzoic Acid]",transcriptional activity significantly above the ethanol control levels,slightly greater RAR agonist activity,0.2,0.081,–,–,–,–
"C=C(c1cc2c(cc1C)C(C)(C)CCC2(C)C)c1ccc(C(=O)O)cc1F [Compound 18, 3-Fluoro-4-(1-(1,2,3,4-tetrahydro-1,1,4,4,6-pentamethylnaphthalen-7-yl)vinyl)benzoic acid]",transcriptional activity significantly above the ethanol control levels,significantly lower RAR binding,0.42,0.161,about half as well as 1,–,–,–
"Cc1cc2c(cc1C(=O)c1ccc(C(=O)O)cc1F)C(C)(C)CCC2(C)C [Compound 19, 3-Fluoro-4-(1-(3,5,5,8,8-pentamethyl-5,6,7,8-tetrahydronaphthalen-2-yl)carbonyl)benzoic acid]",–,–,–,–,does not bind to RXR,almost no apoptotic activity,–,–
"C=C(c1ccc(C(=O)O)c(F)c1)c1cc2c(cc1C)C(C)(C)CCC2(C)C [Compound 20, 2-fluoro-4-(1-(1,2,3,4-tetrahydro-1,1,4,4,6-pentamethylnaphthalen-7-yl)vinyl)benzoic acid]",transcriptional activity significantly above the ethanol control levels,approximately equal to 1,0.043,0.012,–,–,75,20
"Cc1cc2c(cc1C(=O)c1ccc(C(=O)O)c(F)c1)C(C)(C)CCC2(C)C [Compound 21, 2-fluoro-4-(1-(3,5,5,8,8-pentamethyl-5,6,7,8-tetrahydronaphthalen-2-yl)carbonyl)benzoic acid]",–,–,–,–,a small degree of RXR binding and homodimerization relative to 1,–,–,–
